Measurements: ChEMBL document CHEMBL3885861, “Open TG-GATES”

Species: Rattus norvegicus
Test: Open TG-GATES - Regimen: Single
Type: toxicity, organism-based, Sprague-Dawley
Design: regimen Single, gender Male, age 6 weeks
Conditions: in vivo, po, 20 mg/kg, route gavage, dose level Low; for APTT / Bas / Eos / Fbg / Hb / Ht / Lym / MCH / MCHC / MCV / Mono / Neu / PT / Plat / RBC / Ret / WBC: tissue Blood; for KIDNEY_TOTAL: tissue Kidney; for LIVER: tissue Liver; for A/G / ALP / ALT / AST / BUN / CRE / Ca / Cl / DBIL / GLC / IP / K / LDH / Na / PL / RALB / TBIL / TC / TG / TP / gamma-GTP: tissue Plasma

CN(CCOc1ccc(CC2SC(=O)NC2=O)cc1)c1ccccn1.O=C(O)/C=C\C(=O)O (centres undefined) [ROSIGLITAZONE MALEATE]
TERMINAL_BW (3 h): 211.2 g
APTT (3 h): 16 s
Bas (3 h): 0%
Eos (3 h): 0.6%
Fbg (3 h): 208.6 mg/dL
Hb (3 h): 13.1 g/dL
Ht (3 h): 39.8%
Lym (3 h): 75.6%
MCH (3 h): 21.5 pg
MCHC (3 h): 32.9%
MCV (3 h): 65.3 fL
Mono (3 h): 9.2%
Neu (3 h): 14.2%
PT (3 h): 12.2 s
Plat (3 h): 111.6 x10_4/uL
RBC (3 h): 609 x10_4/ul
Ret (3 h): 8.8%
WBC (3 h): 102 x10_2/uL
KIDNEY_TOTAL (3 h): 0.8 g
LIVER (3 h): 10.3 g
A/G (3 h): 2.1
ALP (3 h): 1342 IU/L
ALT (3 h): 38.8 IU/L
AST (3 h): 70.4 IU/L
BUN (3 h): 13.2 mg/dL
CRE (3 h): 0.4 mg/dL
Ca (3 h): 11.2 mg/dL
Cl (3 h): 103.2 meq/L
DBIL (3 h): 0.016 mg/dL
GLC (3 h): 179.2 mg/dL
IP (3 h): 8.4 mg/dL
K (3 h): 4.3 meq/L
LDH (3 h): 104 IU/L
Na (3 h): 139.6 meq/L
PL (3 h): 151.2 mg/dL
RALB (3 h): 3.6 g/dL
TBIL (3 h): 0.052 mg/dL
TC (3 h): 84.4 mg/dL
TG (3 h): 113.4 mg/dL
TP (3 h): 5.4 g/dL
gamma-GTP (3 h): 0.6 IU/L
TERMINAL_BW (6 h): 199.3 g
APTT (6 h): 16.4 s
Bas (6 h): 0%
Eos (6 h): 0.8%
Fbg (6 h): 208.8 mg/dL
Hb (6 h): 13.1 g/dL
Ht (6 h): 39.8%
Lym (6 h): 78%
MCH (6 h): 21.3 pg
MCHC (6 h): 32.8%
MCV (6 h): 64.9 fL
Mono (6 h): 6.4%
Neu (6 h): 15.2%
PT (6 h): 12.1 s
Plat (6 h): 118.2 x10_4/uL
RBC (6 h): 614.6 x10_4/ul
Ret (6 h): 8.5%
WBC (6 h): 114.2 x10_2/uL
KIDNEY_TOTAL (6 h): 0.7 g
LIVER (6 h): 8.7 g
A/G (6 h): 2.5
ALP (6 h): 1335.2 IU/L
ALT (6 h): 37 IU/L
AST (6 h): 73 IU/L
BUN (6 h): 9.2 mg/dL
CRE (6 h): 0.4 mg/dL
Ca (6 h): 11.1 mg/dL
Cl (6 h): 103.6 meq/L
DBIL (6 h): 0.014 mg/dL
GLC (6 h): 184.6 mg/dL
IP (6 h): 9.6 mg/dL
K (6 h): 4.3 meq/L
LDH (6 h): 72.8 IU/L
Na (6 h): 138.2 meq/L
PL (6 h): 135.2 mg/dL
RALB (6 h): 3.7 g/dL
TBIL (6 h): 0.048 mg/dL
TC (6 h): 82.4 mg/dL
TG (6 h): 73.8 mg/dL
TP (6 h): 5.2 g/dL
gamma-GTP (6 h): 0.8 IU/L
TERMINAL_BW (9 h): 198.4 g
APTT (9 h): 16.5 s
Bas (9 h): 0%
Eos (9 h): 1%
Fbg (9 h): 219 mg/dL
Hb (9 h): 12.7 g/dL
Ht (9 h): 38.2%
Lym (9 h): 73%
MCH (9 h): 21.7 pg
MCHC (9 h): 33.3%
MCV (9 h): 65.1 fL
Mono (9 h): 6%
Neu (9 h): 20.4%
PT (9 h): 12.2 s
Plat (9 h): 118 x10_4/uL
RBC (9 h): 586.6 x10_4/ul
Ret (9 h): 9%
WBC (9 h): 90.8 x10_2/uL
KIDNEY_TOTAL (9 h): 0.7 g
LIVER (9 h): 8.5 g
A/G (9 h): 2.4
ALP (9 h): 1181.6 IU/L
ALT (9 h): 35.2 IU/L
AST (9 h): 64.4 IU/L
BUN (9 h): 12.2 mg/dL
CRE (9 h): 0.3 mg/dL
Ca (9 h): 11 mg/dL
Cl (9 h): 104.6 meq/L
DBIL (9 h): 0.01 mg/dL
GLC (9 h): 192.4 mg/dL
IP (9 h): 10.3 mg/dL
K (9 h): 4.2 meq/L
LDH (9 h): 80.6 IU/L
Na (9 h): 140 meq/L
PL (9 h): 130.6 mg/dL
RALB (9 h): 3.8 g/dL
TBIL (9 h): 0.044 mg/dL
TC (9 h): 78.4 mg/dL
TG (9 h): 57.6 mg/dL
TP (9 h): 5.3 g/dL
gamma-GTP (9 h): 0.8 IU/L
TERMINAL_BW (24 h): 217.5 g
APTT (24 h): 15.7 s
Bas (24 h): 0%
Eos (24 h): 1%
Fbg (24 h): 232 mg/dL
Hb (24 h): 12.8 g/dL
Ht (24 h): 39%
Lym (24 h): 74.2%
MCH (24 h): 21.3 pg
MCHC (24 h): 32.9%
MCV (24 h): 64.8 fL
Mono (24 h): 8%
Neu (24 h): 17%
PT (24 h): 11.4 s
Plat (24 h): 119.2 x10_4/uL
RBC (24 h): 602.6 x10_4/ul
Ret (24 h): 7.1%
WBC (24 h): 95 x10_2/uL
KIDNEY_TOTAL (24 h): 0.7 g
LIVER (24 h): 11.3 g
A/G (24 h): 2.4
ALP (24 h): 1603.4 IU/L
ALT (24 h): 34.2 IU/L
AST (24 h): 66.2 IU/L
BUN (24 h): 16 mg/dL
CRE (24 h): 0.4 mg/dL
Ca (24 h): 11.3 mg/dL
Cl (24 h): 104.2 meq/L
DBIL (24 h): 0.014 mg/dL
GLC (24 h): 190.2 mg/dL
IP (24 h): 7.7 mg/dL
K (24 h): 4.3 meq/L
LDH (24 h): 102 IU/L
Na (24 h): 141 meq/L
PL (24 h): 153.4 mg/dL
RALB (24 h): 3.9 g/dL
TBIL (24 h): 0.034 mg/dL
TC (24 h): 87.4 mg/dL
TG (24 h): 128.2 mg/dL
TP (24 h): 5.5 g/dL
gamma-GTP (24 h): 1 IU/L
